Experiments:
[1] = target: T1, BKCa channel (Homo sapiens, UniProt Q12791+Q86W47); test: Single‐channel inside‐out patch clamp, EA.hy926 cells; format: cell-based; details: 3 μM, inner surface of membrane, 40 mV, 0.3 μM free Ca^2+
T1 construct: host or cells: EA.hy926 endothelial cells
Procedure: The human EA.hy926 endothelial cells (ATCC, Manassas, USA) were grown in DMEM containing 10% FCS and 1% HAT (5 mM hypoxanthine, 20 μM aminopterin and 0.8 mM thymidine) and were maintained in an incubator at 37°C in 5% CO2 atmosphere (Bondarenko et al., 2013). Human HNC‐2 neuronal cells were obtained from ATCC. For experiments, cells were plated on glass coverslips. Single‐channel recordings were obtained from excised inside‐out membrane patches in symmetrical solutions using the patch‐clamp technique. All patch‐clamp experiments were performed at room temperature with the use of a water hydraulic micromanipulator (WR‐6, Narishige, Japan). […] The pipettes were filled with 140 mM KCl, 10 mM HEPES, 1 mM MgCl2, 5 mM EGTA and […] CaCl2 buffered to pH 7.2 by adding KOH. Cells were super‐perfused with a bath solution containing 140 mM NaCl, 5 mM KCl, 1.2 mM MgCl2, 10 mM HEPES, 10 mM glucose and 2.4 mM CaCl2. Following gigaseal formation, bath solution was switched to the following: 140 mM KCl, 10 mM HEPES, 1 mM MgCl2, 5 mM EGTA and a designated free Ca^2+ concentration, which was adjusted by adding different amounts of CaCl2 buffered to pH 7.2. (Bondarenko et al., 2011; Bondarenko et al., 2013). Single‐channel activity was expressed as NPo, where N represents the number of functional ion channels in the membrane patch and Po represents the open channel probability determined from idealized traces (Bondarenko et al., 2011). NPo was obtained from ≥20 s of continuous recording under each experimental condition. The effect of VSN16R was estimated after 3 min of continuous exposure to VSN16R‐containing solution. Data were analysed by ANOVA, and statistical significance was evaluated using Scheffés post hoc test of the Prism 5 software for Windows (GraphPad Software).

[2] = target: GPR119 (Homo sapiens, UniProt Q8TDV5); test: Receptor binding profile of VSN16R; parameters: purchased Cerep; Chantest; DiscoveRx; Multispan; MDS Pharma Services; details: 10µM VSN16R
[3] = target: T2, V1a (Homo sapiens, UniProt P37288); test: Receptor binding profile of VSN16R; details: 10µM VSN16R
T2 construct: purchased Cerep; Chantest; DiscoveRx; Multispan; MDS Pharma Services

[4] = target: T3, CYP450 2C9 (Homo sapiens, UniProt P11712); test: CYP450 inhibition of substrate binding; format: in vitro ADME; details: read-out: IC50 Inhibition of substrate binding, VSN16R
T3 construct: host or cells: BTI NN-5B1-4 or Sf9 insect cells
From the text: Inhibition of binding of either 3-cyano-7-ethoxycoumarin, dibenzylfluorescein or 7-benzyoxy-4-
(trifluoromethyl) coumarin in human enzyme transfected BTI NN-5B1-4 cells or Sf9 insect cells or
inhibition of dextromethorphan substrate to CYP450 2D6 in liver microsomes.

[5] = test system: Salmonella typhimurium and Escherichia coli strains; test: Standard Ames test (summary); format: cell-based
Procedure: Strain of Organism Treatment Dose Revertants per plate
First Mutation without Metabolic Stimulation
Second Mutation without Metabolic Stimulation
VSN16R was incubated at various concentrations with either TA1535, TA1537, TA98 and TA100 strains of Salmonella typhimurium, which carry mutations in genes involved in histidine synthesis, and WP2uvvA Escherichia coli. The bacteria are spread on agar plates with limiting histidine content and incubated for 48 h. The number of histidine gene negative to positive revertants was assessed in two experiments. The results represent the mean ± SD. n=3/group. This was performed by Charles

[6] = target: T4, μ (Homo sapiens, UniProt P35372); test: Receptor binding profile of VSN16R; details: 10µM VSN16R
T4 construct: purchased Cerep; Chantest; DiscoveRx; Multispan; MDS Pharma Services

[7] = test system: normal animals; test: Muscle tone in normal animals (resistance to flexion); format: in vivo, mouse; details: 40 mg·kg^−1 p.o.
[8] = target: T5, A1 (Homo sapiens, UniProt P30542); test: Receptor binding profile of VSN16R; details: 10µM VSN16R
T5 construct: purchased Cerep; Chantest; DiscoveRx; Multispan; MDS Pharma Services

[9] = target: T6, EDG1 (Homo sapiens, UniProt P21453); test: Receptor binding profile of VSN16R; details: 10µM VSN16R
T6 construct: purchased Cerep; Chantest; DiscoveRx; Multispan; MDS Pharma Services

[10] = target: T7, CCKA (Homo sapiens, UniProt P32238); test: Receptor binding profile of VSN16R; details: 10µM VSN16R
T7 construct: purchased Cerep; Chantest; DiscoveRx; Multispan; MDS Pharma Services

[11] = test system: healthy humans; test: Phase I single dose: haematology and serum chemistry; format: in vivo, human; details: Day 2
[12] = test system: β2; test: Receptor binding profile of VSN16R; parameters: species or system human; details: 10µM VSN16R
[13] = test system: spastic ABH mice with EAE; test: Spasticity: resistance to hindlimb flexion against a strain gauge
[14] = target: T8, EDG6 (Homo sapiens, UniProt O95977); test: Receptor binding profile of VSN16R; details: 10µM VSN16R
T8 construct: purchased Cerep; Chantest; DiscoveRx; Multispan; MDS Pharma Services
T8 sequence (O95977 whole entry): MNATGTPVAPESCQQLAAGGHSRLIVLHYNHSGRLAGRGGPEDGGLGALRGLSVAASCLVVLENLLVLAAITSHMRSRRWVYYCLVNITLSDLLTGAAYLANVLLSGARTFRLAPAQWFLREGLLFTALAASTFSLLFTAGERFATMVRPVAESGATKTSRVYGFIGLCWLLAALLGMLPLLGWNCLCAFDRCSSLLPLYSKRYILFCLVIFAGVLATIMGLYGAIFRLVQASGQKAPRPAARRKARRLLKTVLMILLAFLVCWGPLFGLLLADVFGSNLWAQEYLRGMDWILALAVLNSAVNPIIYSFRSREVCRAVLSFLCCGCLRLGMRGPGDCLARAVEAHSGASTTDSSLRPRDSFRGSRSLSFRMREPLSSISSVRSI

T3 sequence (P11712 whole entry): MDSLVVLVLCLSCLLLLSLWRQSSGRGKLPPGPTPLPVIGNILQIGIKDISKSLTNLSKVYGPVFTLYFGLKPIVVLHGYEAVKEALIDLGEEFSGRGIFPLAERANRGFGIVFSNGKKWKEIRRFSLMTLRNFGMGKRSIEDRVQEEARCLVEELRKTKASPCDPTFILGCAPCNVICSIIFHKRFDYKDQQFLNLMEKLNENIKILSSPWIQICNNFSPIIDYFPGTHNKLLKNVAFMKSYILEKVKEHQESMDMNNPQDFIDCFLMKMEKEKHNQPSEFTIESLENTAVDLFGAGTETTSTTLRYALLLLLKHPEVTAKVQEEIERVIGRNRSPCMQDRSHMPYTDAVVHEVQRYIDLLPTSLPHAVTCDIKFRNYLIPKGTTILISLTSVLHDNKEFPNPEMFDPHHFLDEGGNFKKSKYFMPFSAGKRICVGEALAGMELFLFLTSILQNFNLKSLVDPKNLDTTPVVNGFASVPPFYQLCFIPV
T6 sequence (P21453 whole entry): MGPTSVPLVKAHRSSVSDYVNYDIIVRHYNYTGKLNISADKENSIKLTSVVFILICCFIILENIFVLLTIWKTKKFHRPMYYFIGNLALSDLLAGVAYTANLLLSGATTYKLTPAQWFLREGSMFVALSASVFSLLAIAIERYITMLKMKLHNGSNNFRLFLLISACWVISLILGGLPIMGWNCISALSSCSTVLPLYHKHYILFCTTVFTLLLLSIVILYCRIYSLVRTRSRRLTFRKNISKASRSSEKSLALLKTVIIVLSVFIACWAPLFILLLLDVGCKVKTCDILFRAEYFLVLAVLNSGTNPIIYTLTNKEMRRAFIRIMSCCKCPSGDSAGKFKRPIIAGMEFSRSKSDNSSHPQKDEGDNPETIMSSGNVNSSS
T4 sequence (P35372 whole entry): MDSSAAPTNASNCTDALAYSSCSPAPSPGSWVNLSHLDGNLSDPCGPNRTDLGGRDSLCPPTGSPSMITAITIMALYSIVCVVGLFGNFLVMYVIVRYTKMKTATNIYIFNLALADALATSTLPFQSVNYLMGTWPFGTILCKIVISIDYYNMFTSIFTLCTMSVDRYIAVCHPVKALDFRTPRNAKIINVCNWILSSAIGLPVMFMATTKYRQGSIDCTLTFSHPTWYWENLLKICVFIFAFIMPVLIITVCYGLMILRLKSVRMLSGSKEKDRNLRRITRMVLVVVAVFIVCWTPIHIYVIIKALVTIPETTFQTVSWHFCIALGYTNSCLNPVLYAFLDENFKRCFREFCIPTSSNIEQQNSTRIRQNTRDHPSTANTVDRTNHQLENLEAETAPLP
T1 sequence (Q12791 whole entry): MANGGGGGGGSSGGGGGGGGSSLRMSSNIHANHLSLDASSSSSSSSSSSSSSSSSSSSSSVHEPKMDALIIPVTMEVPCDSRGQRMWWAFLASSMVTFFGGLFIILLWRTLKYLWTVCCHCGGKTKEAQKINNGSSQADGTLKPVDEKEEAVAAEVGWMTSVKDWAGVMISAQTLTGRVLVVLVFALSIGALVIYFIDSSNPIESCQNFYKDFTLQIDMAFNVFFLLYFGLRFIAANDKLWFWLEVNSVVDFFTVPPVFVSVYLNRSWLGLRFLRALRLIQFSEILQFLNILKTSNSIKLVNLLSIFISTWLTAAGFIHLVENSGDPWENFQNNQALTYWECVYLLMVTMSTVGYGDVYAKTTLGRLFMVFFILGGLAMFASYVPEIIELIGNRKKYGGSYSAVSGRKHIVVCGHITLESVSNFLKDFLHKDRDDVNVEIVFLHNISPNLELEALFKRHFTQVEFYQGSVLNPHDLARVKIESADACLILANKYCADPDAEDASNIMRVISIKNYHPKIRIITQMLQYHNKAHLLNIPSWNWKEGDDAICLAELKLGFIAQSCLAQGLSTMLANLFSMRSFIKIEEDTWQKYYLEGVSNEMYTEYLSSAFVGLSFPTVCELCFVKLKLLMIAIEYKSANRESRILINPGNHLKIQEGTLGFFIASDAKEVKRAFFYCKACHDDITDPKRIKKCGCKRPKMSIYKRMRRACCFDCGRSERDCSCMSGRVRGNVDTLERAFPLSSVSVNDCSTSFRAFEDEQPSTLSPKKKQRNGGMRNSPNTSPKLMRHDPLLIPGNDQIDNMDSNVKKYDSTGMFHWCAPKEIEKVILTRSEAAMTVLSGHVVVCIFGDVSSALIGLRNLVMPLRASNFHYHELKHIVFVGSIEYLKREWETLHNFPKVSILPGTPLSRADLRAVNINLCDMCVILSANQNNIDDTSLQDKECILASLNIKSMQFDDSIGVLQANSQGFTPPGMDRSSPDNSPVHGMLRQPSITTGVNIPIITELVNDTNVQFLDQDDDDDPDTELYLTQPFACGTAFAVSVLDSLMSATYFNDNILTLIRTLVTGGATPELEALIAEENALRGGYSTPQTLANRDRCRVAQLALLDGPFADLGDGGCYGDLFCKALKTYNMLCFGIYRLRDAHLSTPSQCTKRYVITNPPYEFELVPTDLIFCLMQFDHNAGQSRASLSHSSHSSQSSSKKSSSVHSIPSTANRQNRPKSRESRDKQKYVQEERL
T1 sequence (Q86W47 whole entry): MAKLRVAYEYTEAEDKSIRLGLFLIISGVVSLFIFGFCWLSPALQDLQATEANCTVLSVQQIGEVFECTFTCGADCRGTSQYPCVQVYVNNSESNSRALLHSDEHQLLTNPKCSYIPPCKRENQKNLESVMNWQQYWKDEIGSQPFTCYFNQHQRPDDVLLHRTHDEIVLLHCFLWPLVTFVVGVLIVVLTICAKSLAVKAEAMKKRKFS
Sequence of GPR119 (Q8TDV5 whole entry): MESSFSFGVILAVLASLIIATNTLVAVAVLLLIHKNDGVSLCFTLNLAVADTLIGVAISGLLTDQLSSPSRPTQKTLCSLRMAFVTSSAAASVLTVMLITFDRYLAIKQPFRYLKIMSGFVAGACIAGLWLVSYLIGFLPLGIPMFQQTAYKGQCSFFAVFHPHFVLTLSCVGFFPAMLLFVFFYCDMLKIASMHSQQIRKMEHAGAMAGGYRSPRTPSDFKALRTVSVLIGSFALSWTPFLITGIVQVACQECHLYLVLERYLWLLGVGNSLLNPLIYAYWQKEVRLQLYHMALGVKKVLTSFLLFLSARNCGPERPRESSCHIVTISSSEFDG
T2 sequence (P37288 whole entry): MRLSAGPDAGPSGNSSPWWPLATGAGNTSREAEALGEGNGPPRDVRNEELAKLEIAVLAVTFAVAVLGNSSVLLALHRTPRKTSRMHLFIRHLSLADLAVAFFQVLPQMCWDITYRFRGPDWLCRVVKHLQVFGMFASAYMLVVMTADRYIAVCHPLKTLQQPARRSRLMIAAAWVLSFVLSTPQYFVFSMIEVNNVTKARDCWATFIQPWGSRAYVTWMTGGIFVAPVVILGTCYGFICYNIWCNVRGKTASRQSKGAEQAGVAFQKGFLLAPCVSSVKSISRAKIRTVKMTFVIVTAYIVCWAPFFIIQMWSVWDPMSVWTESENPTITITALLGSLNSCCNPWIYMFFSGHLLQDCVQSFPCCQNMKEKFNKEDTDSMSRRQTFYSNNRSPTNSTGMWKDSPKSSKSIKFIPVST
T7 sequence (P32238 whole entry): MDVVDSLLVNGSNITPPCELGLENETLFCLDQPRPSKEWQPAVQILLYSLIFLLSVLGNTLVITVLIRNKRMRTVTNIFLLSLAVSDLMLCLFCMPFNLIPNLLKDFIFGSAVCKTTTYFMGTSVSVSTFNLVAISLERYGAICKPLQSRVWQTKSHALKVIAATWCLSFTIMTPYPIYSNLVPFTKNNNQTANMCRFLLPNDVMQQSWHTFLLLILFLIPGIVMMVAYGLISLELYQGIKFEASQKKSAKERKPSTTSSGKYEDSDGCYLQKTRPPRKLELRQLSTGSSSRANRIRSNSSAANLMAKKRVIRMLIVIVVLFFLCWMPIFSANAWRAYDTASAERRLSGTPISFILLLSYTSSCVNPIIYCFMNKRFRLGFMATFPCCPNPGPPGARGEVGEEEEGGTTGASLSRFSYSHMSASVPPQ
T5 sequence (P30542 whole entry): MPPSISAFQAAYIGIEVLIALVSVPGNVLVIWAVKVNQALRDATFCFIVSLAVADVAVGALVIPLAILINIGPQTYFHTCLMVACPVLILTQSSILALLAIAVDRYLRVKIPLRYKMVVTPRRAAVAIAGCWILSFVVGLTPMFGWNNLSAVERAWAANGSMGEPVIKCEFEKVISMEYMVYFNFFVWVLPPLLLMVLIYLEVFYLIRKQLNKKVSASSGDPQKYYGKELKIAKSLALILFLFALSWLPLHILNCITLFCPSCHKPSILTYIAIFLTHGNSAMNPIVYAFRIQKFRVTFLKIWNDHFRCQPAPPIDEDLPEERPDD

C[C@H](CO)NC(=O)c1cccc(/C=C\CCCC(=O)N(C)C)c1 [VSN16R] was tested, and the “Single BKCa channel activity” value [1] was “facilitated single BKCa channel activity”, the Activity [2] was “Negligible Activity” and the Activity [3] was “Negligible Activity”. For the same compound, the IC50 [4] was > 10 µM, the “Mutagenesis in a standard Ames test” value [5] was “no evidence of mutagenesis” and the Activity [6] was “Negligible Activity”. The “Change (increase) of muscle tone from baseline” value [7] was 9.1 ± 6.3%, the Activity [8] was “Negligible Activity” and the Activity [9] was “Negligible Activity”. The Activity [10] was “Negligible Activity”, the Albumin ([11]; 25mg) was 42 ± 1 g/L and the Amylase ([11]; 25mg) was 65 ± 21 U/L. For the same compound, the Basophils ([11]; 25mg) was 0.0 ± 0.0 109 cells/L, the Bilirubin ([11]; 25mg) was 14.9 ± 6.1 µmol/L and the Calcium ([11]; 25mg) was 2.40 ± 0.08 mmol/L. It also gave a Chloride ([11]; 25mg) of 104 ± 2 mmol/L, a Cholesterol ([11]; 25mg) of 4.79 ± 0.77 mmol/L and a Creatinine ([11]; 25mg) of 84 ± 10 µmol/L. For the same compound, the Eosinophils ([11]; 25mg) was 0.2 ± 0.1 109 cells/L, the Globulin ([11]; 25mg) was 28.8 ± 5.6 g/L and the Glucose ([11]; 25mg) was 4.78 ± 0.58 mmol/L. For the same compound, the Haemoglobin ([11]; 25mg) was 9.4 ± 0.5 mmol/L, the Hematocrit ([11]; 25mg) was 0.425 ± 0.021 and the Lymphocytes ([11]; 25mg) was 1.9 ± 0.6 109 cells/L. The Magnesium ([11]; 25mg) was 0.8 ± 0.0 mmol/L, the Monocytes ([11]; 25mg) was 0.5 ± 0.1 109 cells/L and the Neutrophils ([11]; 25mg) was 2.5 ± 0.6 109 cells/L. The Phosphate ([11]; 25mg) was 1.20 ± 0.10 mmol/L, the Potassium ([11]; 25mg) was 4.27 ± 0.18 mmol/L and the “Red Blood Cells” value ([11]; 25mg) was 4.94 ± 0.30 1012 cells/L. For the same compound, the Sodium ([11]; 25mg) was 141 ± 2 mmol/L, the Triglycerides ([11]; 25mg) was 1.26 ± 0.25 mmol/L and the Urea ([11]; 25mg) was 4.4 ± 0.9 mmol/L. The “White Blood Cells” value ([11]; 25mg) was 5.2 ± 1.2 109 cells/L, the Albumin ([11]; 800mg) was 42 ± 1 g/L and the Amylase ([11]; 800mg) was 50 ± 12 U/L. The Basophils ([11]; 800mg) was 0.0 ± 0.0 109 cells/L, the Bilirubin ([11]; 800mg) was 11.4 ± 3.0 µmol/L and the Calcium ([11]; 800mg) was 2.35 ± 0.04 mmol/L. For the same compound, the Chloride ([11]; 800mg) was 104 ± 1 mmol/L, the Cholesterol ([11]; 800mg) was 4.68 ± 0.78 mmol/L and the Creatinine ([11]; 800mg) was 84 ± 10 µmol/L. The Eosinophils ([11]; 800mg) was 0.3 ± 0.1 109 cells/L, the Globulin ([11]; 800mg) was 28.9 ± 1.2 g/L and the Glucose ([11]; 800mg) was 5.51 ± 0.92 mmol/L. For the same compound, the Haemoglobin ([11]; 800mg) was 9.3 ± 0.5 mmol/L, the Hematocrit ([11]; 800mg) was 0.421 ± 0.016 and the Lymphocytes ([11]; 800mg) was 1.8 ± 0.6 109 cells/L. For the same compound, the Magnesium ([11]; 800mg) was 0.8 ± 0.1 mmol/L, the Monocytes ([11]; 800mg) was 0.5 ± 0.1 109 cells/L and the Neutrophils ([11]; 800mg) was 2.7 ± 1.2 109 cells/L. The Phosphate ([11]; 800mg) was 1.02 ± 0.10 mmol/L, the Potassium ([11]; 800mg) was 4.19 ± 0.25 mmol/L and the “Red Blood Cells” value ([11]; 800mg) was 4.87 ± 0.30 1012 cells/L. It also gave a Sodium ([11]; 800mg) of 142 ± 3 mmol/L, a Triglycerides ([11]; 800mg) of 1.55 ± 0.61 mmol/L and a Urea ([11]; 800mg) of 4.7 ± 0.4 mmol/L. For the same compound, the “White Blood Cells” value ([11]; 800mg) was 5.0 ± 1.1 109 cells/L, the Activity [12] was “Negligible Activity” and the Inhibition of spasticity ([13]; 0.5 mg·kg^−1 p.o.) was “failed to produce rapid muscular relaxation and inhibition of spasticity”. For the same compound, the Inhibition of spasticity ([13]; 1 mg·kg^−1 p.o.) was “significant therapeutic activity was evident within 10 min”, the Inhibition of spasticity ([13]; 5 mg·kg^−1 i.v.) was “slightly more active than VSN16S” and the Inhibition of spasticity ([13]; 5 mg·kg^−1 p.o.) was “significant therapeutic activity was evident within 10 min”. For the same compound, the “Mean group score, resistance to flexion (±SD), one mean per animal” value ([13]; 5 mg·kg^−1 p.o., 30 min) was 0.224 ± 0.067 N, the “Mean group score, resistance to flexion (±SD), one mean per animal” value ([13]; 5 mg·kg^−1 p.o., 60 min) was 0.214 ± 0.071 N and the “Therapeutic effect after repeated daily administration” value ([13]; 40 mg·kg^−1 p.o. for 7 days) was “therapeutic effect was sustained”. The “Drop of resistance to flexion from baseline” value ([13]; 40 mg·kg^−1 p.o., visibly spastic animals) was 17.8 ± 5.3%, the “Resistance to flexion force” value ([13]; 2 weeks after cessation of weekly treatment, mean ± SEM) was 0.157 ± 0.045 N and the “Duration of inhibition of spasticity” value ([13]; single dose of 40 mg·kg^−1 p.o.) was “over 6 h”. The Activity [14] was “Negligible Activity”.

— article PMC5522996, “Big conductance calcium‐activated potassium channel openers control spasticity without sedation” (British Journal of Pharmacology, 2017)
